Literature values in article PMC5698879 (Inorganic Chemistry, 2017).
Where two headings read alike, the source gives them in different places.

Conditions: [Cu^2+]tot = [chelator]tot = 50 μM

## O=C(O)CN(CCN(CC(=O)O)CC(=O)O)CCN(CC(=O)O)CC(=O)O [DTPA, diethylenetriaminepentacetic acid]
pH 6.6
  Calculated pCu (−log [Cu]free): 9.7
pH 7.4
  Calculated pCu (−log [Cu]free): 10.7
